Data published in PMC11589582, “Structural mechanisms of human sodium-coupled high-affinity choline transporter CHT1” (Cell Discovery, 2024).

Target: T1, sodium-coupled high-affinity choline transporter CHT1 (Homo sapiens, UniProt Q9GZV3)
T1 construct: gene SLC5A7; Full-length human CHT1 (NP_068587.1) with a C-terminal Strep-tag
T1 sequence (Q9GZV3 1-580): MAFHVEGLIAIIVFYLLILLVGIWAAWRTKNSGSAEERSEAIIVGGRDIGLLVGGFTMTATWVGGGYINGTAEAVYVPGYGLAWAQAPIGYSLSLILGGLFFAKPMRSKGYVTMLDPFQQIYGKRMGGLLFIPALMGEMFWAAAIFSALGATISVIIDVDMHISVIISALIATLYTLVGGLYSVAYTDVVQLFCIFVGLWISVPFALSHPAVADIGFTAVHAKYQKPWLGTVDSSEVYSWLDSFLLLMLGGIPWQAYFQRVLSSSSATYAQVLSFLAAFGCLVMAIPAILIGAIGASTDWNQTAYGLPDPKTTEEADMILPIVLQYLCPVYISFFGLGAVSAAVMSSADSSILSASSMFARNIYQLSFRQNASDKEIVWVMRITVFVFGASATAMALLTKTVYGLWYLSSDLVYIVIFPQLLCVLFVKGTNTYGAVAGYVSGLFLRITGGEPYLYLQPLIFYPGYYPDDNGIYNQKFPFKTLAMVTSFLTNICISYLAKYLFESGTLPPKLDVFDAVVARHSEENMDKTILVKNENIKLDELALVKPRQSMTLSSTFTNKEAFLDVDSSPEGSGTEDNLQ
Experiment: cryo-EM structure at […] Å; [3H]-choline uptake inhibition in CHT1-expressing HEK293 cells
Type: cell-based

Q: For `C[N+]1(C)CCOC(O)(c2ccc(-c3ccc(C4(O)C[N+](C)(C)CCO4)cc3)cc2)C1` (stereo not shown) [HC3, hemicholinium-3], which IC50 is on record?
A: Its IC50 is 4.98 ± 1.04 nM.
